Assay results reported in patent publication US20110268818A1, “NGAL-BINDING SIDEROPHORES AND USE THEREOF TO TREAT IRON DEFICIENCY AND IRON OVERLOAD” (priority 2008, published 2011).
Counter-ions that a name gives are not always drawn.

Assays:
[1] = Catechol sulfate stability followed by silica gel TLC; format: physicochemical
Description: FIG. 29 is a reproduction of Silical gel TLC developed by Dichlorlmethane: MeOH:H2O=5:1:0.1, and colored by 12.

NGAL [2] = target: T1, NGAL (Homo sapiens, UniProt P80188); test: NGAL:siderophore:iron binding assay (retention on 10 kDa filter); conditions: for NGAL: Chelator: Fe % Retention: apoNGAL 10 μM, 55Fe, compound 10 μM, pH 7.4, washed on 10 kDa filter; for NGAL-siderophore-Fe binding activity (in words): iron retention by NGAL on filter
T1 construct: made in house; host or cells: E. coli BL-21
Experimental: NGAL:Siderophore:Iron Binding Assays. […] After 60 minutes, the mixture was washed 3 times (YM-10) or alternatively gel filtered (PD-10, GE Biosciences). Ent loaded NGAL served as a positive control. Ferric citrate (1 mM) or Ent:iron (500 μM) served as competitors of ^55Fe binding.
After 60 minutes at room temperature, the mixture was then washed 3 times on a 10-kDa membrane (Amicon YM-10; Millipore Corp.). Ngal loaded with iron-free enterochelin (rather than apo-Ngal) served as a positive control for iron capture. Ferric citrate (1 mM) or iron-loaded enterochelin (siderophore:Fe, […]) was used as a competitor of 55Fe binding.

[3] = Siderophore:iron binding assay (paper chromatography); conditions: for Fe: Chromatography: 55Fe mobilised by compound on paper chromatogram developed in water, Yes/No
Description: Siderophore:Iron Binding Assay. To test whether candidates bound iron directly, candidates (1 nmole) were mixed with ^55Fe (1 pmole), and then separated bound from free ^55Fe using paper chromatography developed in water.
Paper chromatography: The Fe-Siderophore Binding Assay: The concept underlying the Ngal-siderophore-Fe binding assay is that the urinary molecule provides an iron binding siderophore, and that the Ngal protein provides the carrier which retains the siderophore:Fe on the 10 KDa filter. […] To directly test this idea, we will mix 55Fe with HMDB compounds and then separate bound from free 55Fe by using paper chromatography. […] The assay also provides an independent means to follow the purification of the urinary siderophore. Using this assay, we can measure the specific activity of the fractions to identify the peak activity, as well as to compare the urinary fraction with enterochelin to establish relative units of activity.

NGAL [4] = target: T1, NGAL; test: Release of ligands and iron from NGAL complexes by acidification; format: physicochemical; conditions: fluorescence and 55Fe release
Description: FIGS. 6A-6C. Release of ligands from NGAL by acidification. […] Fluorescence was quenched by ligand binding. Upon acidification, the ligands were released and fluorescence returned to baseline. Subsequent basification, where relevant, caused rebinding. Note that NGAL:pyrogallol and 2,3-dihydroxybenzoic acid complexes required much lower pH for dissociation. (B) Release of ^55Fe from different NGAL:catecholate complexes by low pH washes on a 10 KDa microcon. For this comparison, the retention of iron at pH7.0 was defined as 100%. […] Data were presented as mean±Std.
To transport iron from plasma to cells there has to be a mechanism for releasing iron from the complex. Intracellular delivery of iron by transferring is known to require passage through acidified endosomes where iron is released. […] While the complex was stable at neutral pH, acidification below pH 7.0 progressively reversed ligand-dependent fluorescence quenching of NGAL and released iron (FIG. 6A, B).
Fluorescence quenching binding assay. […] The pH was adjusted until the fluorescence signal stopped changing, while fluorescence values were corrected for dilution. Data were analyzed by a nonlinear regression analysis using a one-site binding model (Kuzmic, P. (1996). Program DYNAFIT for the analysis of enzyme kinetic data: application to HIV proteinase. Anal. Biochem. 237, 260-273). […]

NGAL [5] = target: T1, NGAL; test: Fluorescence quenching binding assay
Experimental: Fluorescence quenching binding assay. […] The pH was adjusted until the fluorescence signal stopped changing, while fluorescence values were corrected for dilution. […] Control experiments were performed to ensure the stability of the protein at experimental conditions, including the dilution and the addition of DMSO and ubiquitin.

[6] = Free catechol stability in solution monitored by NMR; format: physicochemical; conditions: monitored for 20 hrs by NMR, D2O
Description: J. Agric Food Chem. 54, 5755-5762; Carmella, S. G., La, V. E. J., Hecht, S. S. (1982). […] Food Chem Toxicol. 20, 587-590) and aromatic amino acids (˜50%; Martin et al., 1982; Carmella et al., 1982; Bakke, O. M. (1969). Urinary simple phenols in rats fed purified and nonpurified diets. J. Nutr. 98, 209-216). […] Using urinary biomarkers to elucidate dose-related patterns of human benzene metabolism. Carcinogenesis 27, 772-781), whereupon they are sulfonated (Rennick, B., Quebbemann, A. (1970). Site of excretion of catechol and catecholamines: renal metabolism of catechol. Am. J. Physiol. 218, 1307-1312).

[7] = Catechol and iron traffic to the kidney in vivo; conditions: mouse
[8] = Hydroxyl radicals detected by conversion of HPF to fluorescein; format: biochemical; conditions: catechol, ferric iron and H2O2
Description: NGAL Blocks Iron Induced Hydroxyl Radicals. […] Hydroxyl radicals were detected by the conversion of HPF to fluorescein (Setsukinai, K., Urano, Y., Kakinuma, K., Majima, H. J., Nagano, T. (2003). Development of Novel Fluorescence Probes That Can Reliably Detect Reactive Oxygen Species and Distinguish Specific Species. J Biol Chem. 278, 170-3175) using […].

Mouse stromal cells = test: Capture of NGAL:siderophore:55Fe by stromal cells; format: cell-based; conditions: bafilomycin inhibits vacuolar H+ ATPase
Experimental: Capture of NGAL:Siderophore:Iron. Mouse stromal cells (10^5) were grown in MEM, 10% FCS for 24 hrs and FCS subsequently removed. […] Cells were washed 3 times and extracted with 0.2% SDS.

[9] = Reduction of Fe3+ to Fe2+ detected with phenanthroline; format: biochemical; conditions: catechols 45 μM, ferric iron 15 μM, NGAL 15 μM

Molecule | NGAL: Chelator: Fe % Retention (NGAL [2]) [%] | Fe: Chromatography [3] | also measured
Cc1cccc(O)c1O [3-methylcatechol] | 56 | Yes | NGAL-siderophore-Fe binding activity (in words) (NGAL [2]): highest activities; pH at which the NGAL:ligand:iron complex dissociates (NGAL [4]): 5.5 pH
Cc1ccc(O)c(O)c1 [4-methylcatechol] | 29 | Yes | affinity for NGAL (in words) (NGAL [5]): low affinity; NGAL-siderophore-Fe binding activity (in words) (NGAL [2]): highest activities
Oc1ccccc1O [Catechol] | 56 |  | increase in binding affinity for NGAL in the presence of iron (NGAL [5]; with iron vs without iron): 10^5; stability of free catechol in solution [6]: stable in solution; NGAL-siderophore-Fe binding activity (in words) (NGAL [2]): most active compound; NGAL-siderophore-Fe binding activity (in words) (NGAL [2]; listed as catechol): highest activities; pH at which the NGAL:ligand:iron complex dissociates (NGAL [4]): 5.5 pH; clearance of free 14C-catechol by organs [7]: rapidly cleared; conversion of HPF to fluorescein (hydroxyl radical formation) [8]: Conversion of HPF to fluorescein occurs
Cc1ncc(CO)c(C=O)c1O [Pyridoxal] | 1 | No | 
CO/C1=C\C(C)=C\[C@@H](C)[C@@H](O)[C@@H](C)C/C(C)=C/C=C/[C@H](OC)[C@@H]([C@@H](C)[C@@H](O)[C@H](C)[C@@]2(O)C[C@@H](O)[C@H](C)[C@@H](C(C)C)O2)OC1=O [bafilomycin] |  |  | iron donation from NGAL:catechol:iron complex to cells (Mouse stromal cells): blocked
Maleic acid | 4 | No | 
NGAL: Neutrophil Gelatinase Associated Lipocalin, recombinant protein (protein, UniProt P80188 21-198, looked up) Neutrophil …: QDSTSDLIPAPPLSKVPLQQNFQDNQFQGKWYVVGLAGNAILREDKDPQKMYATIYELKEDKSYNVTSVLFRKKKCDYWIRTFVPGCQPGEFTLGNIKSYPGLTSYLVRVVSTNYNQHAMVFFKKVSQNREYFKITLYGRTKELTSELKENFIRFSKSLGLPENHIVFPVPIDQCIDG |  |  | conversion of HPF to fluorescein (hydroxyl radical formation) [8]: blocked the reaction; reduction of ferric iron to ferrous iron (phenanthroline) [9]: blocked the reaction

Second part, led by results:

NGAL: Chelator: Fe % Retention (NGAL [2]) [%] | Fe: Chromatography [3] | Molecule | also measured
4 |  | O=S(=O)([O-])Oc1ccccc1O.[Na+] | stability in methanol at pH≦6 ([1]; incubated for 1 hour): decompose; stability in urine ([1]; incubated for 48 hours): stable
3 | Yes | NC(=O)C1=CN([C@@H]2O[C@H](COP(=O)(O)OP(=O)(O)OC[C@H]3O[C@@H](n4cnc5c(N)ncnc54)[C@H](OP(=O)(O)O)[C@@H]3O)[C@@H](O)[C@H]2O)C=CC1 [NADPH] | 
7 | Yes | NC(=O)c1ccc[n+]([C@@H]2O[C@H](COP(=O)(O)OP(=O)(O)OC[C@H]3O[C@@H](n4cnc5c(N)ncnc54)[C@H](OP(=O)(O)O)[C@@H]3O)[C@@H](O)[C@H]2O)c1 [NADP] | iron chelating activity by paper chromatography (in words) [3]: active
12 | No | NC(=O)c1ccc[n+]([C@@H]2O[C@H](COP(=O)(O)OP(=O)(O)OC[C@H]3O[C@@H](n4cnc5c(N)ncnc54)[C@H](O)[C@@H]3O)[C@@H](O)[C@H]2O)c1 [NAD] | 
3 | No | O=C(O)c1cccnc1 [Nicotinic acid] | 
13 | No | O=C(O)c1cc(=O)[nH]c(=O)[nH]1 [Orotic acid] | 
3 | No | NCc1[nH]cc(CCC(=O)O)c1CC(=O)O [Porphobilinogen] | 
50 | Yes | O=C(/C=C/c1ccc(O)c(O)c1)O[C@H](Cc1ccc(O)c(O)c1)C(=O)O [Rosmarinic acid] | iron chelating activity by paper chromatography (in words) [3]: active; NGAL-siderophore-Fe binding activity (in words) (NGAL [2]): active
15 | No | O=C(O)c1ccccc1O [Salicylic acid] | 
3 | No | CCC1C(=O)NC(CC2=N/C(=C\c3[nH]c(CC4NC(=O)C(C)C4CC)c(C)c3CCC(=O)O)C(CCC(=O)O)=C2C)C1C (centres unmarked) [Urobilin HCl] | 
